Results published in patent publication US6844190B2, “St-B17 serotonin receptor” (The United States of America as represented by the …, priority 1992, dated 2005).
Like-named read-outs stand apart in the source and are kept apart here.

Experiments:
[1] = biological target: T1, St-B17 serotonin receptor (Rattus norvegicus, UniProt P31388, L57V); experiment: [125I]-LSD competition binding, Cos-7 cell membranes expressing St-B17; design: expressed in transfected cells; host or cells: Cos-7 cells, transient transfection, crude membranes; conditions: for affinity for St-B17 (in words): qualitative statement
T1 sequence (P31388 with tags, fused parts or gaps L57V): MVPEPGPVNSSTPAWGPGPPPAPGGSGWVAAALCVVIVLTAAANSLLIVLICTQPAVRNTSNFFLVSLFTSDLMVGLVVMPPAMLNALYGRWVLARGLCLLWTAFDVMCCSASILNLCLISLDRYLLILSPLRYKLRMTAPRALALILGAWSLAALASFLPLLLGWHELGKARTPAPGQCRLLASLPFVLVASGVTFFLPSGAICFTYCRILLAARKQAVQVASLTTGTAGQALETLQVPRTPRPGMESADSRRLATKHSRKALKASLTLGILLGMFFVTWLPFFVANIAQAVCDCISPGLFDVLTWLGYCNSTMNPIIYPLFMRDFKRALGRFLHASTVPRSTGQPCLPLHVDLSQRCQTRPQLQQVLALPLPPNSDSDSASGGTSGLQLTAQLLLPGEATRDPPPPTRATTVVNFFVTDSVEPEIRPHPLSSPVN
Description: (§1) This experiment was performed on Cos-7 cell membranes expressing the St-B17 serotonin receptor.

[2] = biological target: T2, St-B17 serotonin receptor (Rattus norvegicus, UniProt P31388); experiment: as above; conditions: read-out: Ki vs. [125I]-LSD, Mean ± SEM
T2 construct: expressed in transfected cells; host or cells: Cos-7 cells, transient transfection, crude membranes
T2 sequence (P31388 with tags, fused parts or gaps L57V): as above
Description: as §1

[3] = biological target: T3, St-B17 stably expressed in HEK-293 cells (Rattus norvegicus, UniProt P31388, L57V); experiment: cAMP accumulation in intact HEK-293 cells stably expressing St-B17; format: cell-based
T3 construct: expressed in transfected cells
T3 sequence (P31388 with tags, fused parts or gaps L57V): as above
Description: Human Embryonic Kidney cells (HEK 293 available from the ATCC) were stably co-transfected in 150mm dishes by the CaPO4 technique with 30 μg of pSRα-B17 and 3 μg of pMam-neo (INVITROGEN). These HEK 293 cells were then subjected to selection with 600 μg/ml genetecin (G418) (GIBCO). The resistant colonies were collected and screened for receptor expression by [^125I]-LSD binding as described in Example 6.
Intracellular cAMP levels were determined after a 5 minute incubation of intact cells with various test compounds at 37° C. in the presence of the cAMP phosphodiesterase inhibitor RO-20-1724, using a modification of a previously described cAMP assay (Monsma, F. J., Jr., Barton, A. C., and Sibley, D. R. (1990) J. Neurochemistry 54, 1200-1207) wherein the adrenal cAMP binding protein was replaced with 0.8 mg/ml protein kinase A in water.

[4] = biological target: T1, St-B17 serotonin receptor; experiment: [3H]-5-HT competition binding, Cos-7 cell membranes expressing St-B17; design: expressed in transfected cells; host or cells: Cos-7 cells, transient transfection, crude membranes
[5] = tested on: adenylyl cyclase activity in the NCB-20 neuroblastoma cell line; conditions: NCB-20 cells, literature; read-out: EC50, activation of adenylyl cyclase; cited from earlier work
[6] = Ki vs. [125I]-LSD, Mean ± SEM, 0.5 nM [125I]-LSD, Cos-7 membranes, n=3, Cheng-Prussoff from IC50
[7] = 0.5 nM [125I]-LSD, Cos-7 membranes, n=3, Cheng-Prussoff from IC50
[8] = 10 μM final concentration, FIG. 5
[9] = read-out: Ki vs. [3H]-5-HT, Mean ± SEM
[10] = screened compounds, radioligand not restated, read-out: inhibition constant (Ki)

SMILES: c1ccc2c(N3CCNCC3)cccc2c1 [1(1-naphthyl)piperazine]
- Ki [1, 6]: 104 ± 13.8 nM

SMILES: CCN(CC)C(=O)[C@@H]1C=C2c3cccc4[nH]c(Br)c(c34)C[C@H]2N(C)C1 [2-Br-LSD]
- Ki [2, 7]: 17.1 ± 1.11 nM

SMILES: COc1ccccc1N1CCNCC1 [2-MPP]
- Ki [2, 7]: 3050 ± 321 nM

SMILES: NCCc1c[nH]c2ccc(OCc3ccccc3)cc12 [5-Benzyloxytryptamine]
- Ki [1, 6]: 110 ± 17.9 nM

SMILES: NCCc1c[nH]c2ccc(C(N)=O)cc12 [5-Carboxamidotryptamine]
- effect on cAMP levels on their own (in words) [3, 8]: elicit an increase in cAMP levels
- Ki ([4]; 5 nM [3H]-5-HT, Cos-7 membranes, n=3, Cheng-Prussoff from IC50, read-out: Ki vs. [3H]-5-HT, Mean ± SEM): 253 ± 20 nM
- Ki [2, 7]: 774 ± 84.4 nM

SMILES: NCCc1c[nH]c2ccc(O)cc12 [5-HT, 5-hydroxytryptamine]
- EC50 [3]: 145 nM
- influence of guanine nucleotide analogue GppNHp on affinity ([1]; addition of GppNHp): not influenced
- Hill coefficient for the competition curve ([1]; vs. [125I]-LSD): not significantly different from unity
- EC50 [5]: 300 nM
- Ki [2, 7]: 151 ± 12.8 nM

SMILES: CNCCc1c[nH]c2ccc(O)cc12 [5-Hydroxy-N,ω-methyltryptamine]
- Ki [2, 7]: 58 ± 8.32 nM

SMILES: COc1ccc2[nH]cc(CCN)c2c1 [5-methoxytryptamine]
- effect on cAMP levels on their own (in words) [3, 8]: elicit an increase in cAMP levels
- Ki [1, 6]: 38.9 ± 3.95 nM

SMILES: CCCN(CCC)C1CCc2cccc(O)c2C1 (stereo not shown) [8-OH-DPAT]
- affinity for St-B17 (in words) [1]: relatively low affinity

SMILES: CN(C)CCC=C1c2ccccc2CCc2ccccc21 [Amitriptyline]
- Ki [4, 9]: 82 ± 6 nM
- Ki [2, 7]: 69.6 ± 7.21 nM

SMILES: Clc1ccc2c(c1)C(N1CCNCC1)=Nc1ccccc1O2 [Amoxipine]
- effect on cAMP levels on their own (in words) [3, 8]: no significant effect on cAMP levels
- effect on the cAMP response elicited by 5-HT (in words) [3, 8]: substantially inhibit the response elicited by 5-HT
- functional classification at St-B17 receptor [3, 8]: antagonists
- Ki [2, 7]: 30.4 ± 1.64 nM

SMILES: COc1cc(N)c(Cl)cc1C(=O)NC1CCN2CCCC1C2 (stereo not shown) [BRL 24924]
- Ki [1, 10]: > 10000 nM

SMILES: CN1C2CCCC1CC(NC(=O)c1nn(C)c3ccccc13)C2 (stereo not shown) [BRL 43694A]
- Ki [1, 10]: > 10000 nM

SMILES: CN1CCN(c2nc3cc(C(F)(F)F)ccc3n3cccc23)CC1.O=C(O)/C=C\C(=O)O.O=C(O)/C=C\C(=O)O [CGS 12066B]
- affinity for St-B17 (in words) [1]: relatively low affinity
- Ki [2, 7]: 738 ± 66.6 nM

SMILES: CC(C)C[C@H]1C(=O)N2CCC[C@H]2[C@]2(O)O[C@](NC(=O)[C@@H]3C[C@@H]4c5cccc6[nH]cc(c56)C[C@H]4N(C)C3)(C(C)C)C(=O)N12 [Dihydroergocryptine]
- Ki [1, 6]: 161 ± 13.2 nM

SMILES: CN1C[C@H](C(=O)N[C@]2(C)O[C@@]3(O)[C@@H]4CCCN4C(=O)[C@H](Cc4ccccc4)N3C2=O)C[C@@H]2c3cccc4[nH]cc(c34)C[C@H]21 [Dihydroergotamine]
- effect on cAMP levels on their own (in words) [3, 8]: stimulate cAMP accumulation
- functional classification at St-B17 receptor [3, 8]: partial agonists
- Ki [1, 6]: 13.1 ± 0.9 nM
- Ki [4]: 5.4 ± 5.4 nM

SMILES: CN1[C@@H]2CC[C@H]1C[C@@H](OC(=O)c1c[nH]c3ccccc13)C2 [ICS 205,930]
- affinity for St-B17 (in words) [1]: virtually no affinity

SMILES: CN1C[C@H](CC#N)C[C@@H]2c3cccc4[nH]c(Cl)c(c34)C[C@H]21 [Lergotrile]
- Ki [2]: 36.5 ± 1.04 nM

SMILES: CN1CCN(C2=Nc3ccccc3Oc3ccc(Cl)cc32)CC1 [Loxapine]
- Ki [4, 9]: 56 ± 1.5 nM
- Ki [2, 7]: 64.75 ± 0.6 nM

SMILES: CN1[C@@H]2CC[C@H]1C[C@@H](OC(=O)c1cc(Cl)cc(Cl)c1)C2 [MDL 72222]
- affinity for St-B17 (in words) [1]: virtually no affinity
- Ki [1, 10]: > 10000 nM

SMILES: CN1C[C@@H](NS(=O)(=O)N(C)C)C[C@@H]2c3cccc4c3c(cn4C)C[C@H]21 [Mesulergine]
- Ki [2, 7]: 1720 ± 248 nM

SMILES: CN1C[C@H](CNC(=O)OCc2ccccc2)C[C@@H]2c3cccc4c3c(cn4C)C[C@H]21 [Metergoline]
- Ki [4, 9]: 61 ± 23 nM
- Ki [2, 7]: 30 ± 0.38 nM

SMILES: CC[C@@H](CO)NC(=O)[C@@H]1C=C2c3cccc4c3c(cn4C)C[C@H]2N(C)C1 [MethyscrGide]
- Ki [2, 7]: 372 ± 72.7 nM

SMILES: COc1ccc2[nH]cc(CCN(C)C)c2c1 [N,N-Dimethyl-5-methoxytryptamine]
- Ki [1, 6]: 79.8 ± 3.86 nM

SMILES: COc1ccccc1N1CCN(CCCCN2C(=O)c3ccccc3C2=O)CC1 [NAN-190]
- Ki ([1]; inhibition constant (Ki), screened compounds, radioligand not restated): > 10000 nM
